Results reported in ChEMBL document CHEMBL5143732 (J Med Chem, 2022).
In brackets after ≈: the same amount, converted by molar mass.

What was measured:
Type in all cases: functional
Cryptococcus neoformans = assay: Antifungal activity against Cryptococcus neoformans ATCC 32609 assessed as inhibition of fungal growth measured after 48 hrs by CLSI based agar dilution method
Candida parapsilosis = assay: Antifungal activity against Candida parapsilosis assessed as inhibition of fungal growth measured after 48 hrs by CLSI based agar dilution method; settings: Lodderomyces parapsilosis
Candida albicans = assay: Antifungal activity against Candida albicans assessed as inhibition of fungal growth measured after 48 hrs by CLSI based agar dilution method
Pichia kudriavzevii [1] = assay: Antifungal activity against Candida krusei assessed as inhibition of fungal growth measured after 48 hrs by CLSI based agar dilution method
Pichia kudriavzevii [2] = assay: Antifungal activity against Candida krusei ATCC 6258 assessed as inhibition of fungal growth measured after 48 hrs by CLSI based agar dilution method
Candida tropicalis = assay: Antifungal activity against Candida tropicalis assessed as inhibition of fungal growth measured after 48 hrs by CLSI based agar dilution method

Row | SMILES | MIC (Cryptococcus neoformans) [mg/L] | MIC (Candida parapsilosis) [mg/L] | MIC (Candida albicans) [mg/L] | MIC (Pichia kudriavzevii [1]) [mg/L] | MIC (Pichia kudriavzevii [2]) [mg/L] | MIC (Candida tropicalis) [mg/L]
1 | C[C@@H]1[C@H](O)[C@@H](C)/C=C/C=C/C=C/C=C/C=C/C=C/C=C/[C@H](O[C@@H]2O[C@H](C)[C@@H](O)[C@H](NC(=O)CCN)[C@@H]2O)C[C@@H]2O[C@](O)(C[C@@H](O)C[C@@H](O)[C@H](O)CC[C@@H](O)C[C@@H](O)CC(=O)O[C@H]1C)C[C@H](O)[C@H]2C(=O)NCCO | 2 (≈ 1.93 µM) | 8 (≈ 7.71 µM) | 2 (≈ 1.93 µM) | 2 (≈ 1.93 µM) | 4 (≈ 3.85 µM) | 8 (≈ 7.71 µM)
2 | COC(=O)NNC(=O)[C@H]1[C@@H]2C[C@@H](O[C@@H]3O[C@H](C)[C@@H](O)[C@H](NC(=O)CCN)[C@@H]3O)/C=C/C=C/C=C/C=C/C=C/C=C/C=C/[C@H](C)[C@@H](O)[C@@H](C)[C@H](C)OC(=O)C[C@H](O)C[C@H](O)CC[C@@H](O)[C@H](O)C[C@H](O)C[C@](O)(C[C@@H]1O)O2 | 0.25 (≈ 0.234 µM) | 8 (≈ 7.5 µM) | 0.25 (≈ 0.234 µM) | 0.5 (≈ 0.468 µM) | 8 (≈ 7.5 µM) | 8 (≈ 7.5 µM)
3 | CNCC(=O)N[C@@H]1[C@H](O)[C@H](O[C@H]2/C=C/C=C/C=C/C=C/C=C/C=C/C=C/[C@H](C)[C@@H](O)[C@@H](C)[C@H](C)OC(=O)C[C@H](O)C[C@H](O)CC[C@@H](O)[C@H](O)C[C@H](O)C[C@]3(O)C[C@H](O)[C@@H](C(=O)NNC(=O)OC)[C@H](C2)O3)O[C@H](C)[C@H]1O | 0.5 (≈ 0.468 µM) | 4 (≈ 3.75 µM) | 0.125 (≈ 0.117 µM) | 0.125 (≈ 0.117 µM) | 2 (≈ 1.87 µM) | 1 (≈ 0.937 µM)
4 | C[C@@H]1[C@H](O)[C@@H](C)/C=C/C=C/C=C/C=C/C=C/C=C/C=C/[C@H](O[C@@H]2O[C@H](C)[C@@H](O)[C@H](NC(=O)COCCN)[C@@H]2O)C[C@@H]2O[C@](O)(C[C@@H](O)C[C@@H](O)[C@H](O)CC[C@@H](O)C[C@@H](O)CC(=O)O[C@H]1C)C[C@H](O)[C@H]2C(=O)N1CCN(CCO)CC1 | 0.5 (≈ 0.44 µM) | 2 (≈ 1.76 µM) | 0.5 (≈ 0.44 µM) | 2 (≈ 1.76 µM) | 16 (≈ 14.1 µM) | 0.25 (≈ 0.22 µM)
5 | CNCC(=O)N[C@@H]1[C@H](O)[C@H](O[C@H]2/C=C/C=C/C=C/C=C/C=C/C=C/C=C/[C@H](C)[C@@H](O)[C@@H](C)[C@H](C)OC(=O)C[C@H](O)C[C@H](O)CC[C@@H](O)[C@H](O)C[C@H](O)C[C@]3(O)C[C@H](O)[C@@H](C(=O)N4CCN(CCS(C)(=O)=O)CC4)[C@H](C2)O3)O[C@H](C)[C@H]1O | 2 (≈ 1.71 µM) | 2 (≈ 1.71 µM) | 2 (≈ 1.71 µM) | 4 (≈ 3.42 µM) | 16 (≈ 13.7 µM) | 4 (≈ 3.42 µM)
6 | C[C@@H]1[C@H](O)[C@@H](C)/C=C/C=C/C=C/C=C/C=C/C=C/C=C/[C@H](O[C@@H]2O[C@H](C)[C@@H](O)[C@H](N)[C@@H]2O)C[C@@H]2O[C@](O)(C[C@@H](O)C[C@@H](O)[C@H](O)CC[C@@H](O)C[C@@H](O)CC(=O)O[C@H]1C)C[C@H](O)[C@H]2C(=O)NNC(=O)c1ccccc1 | 0.5 (≈ 0.48 µM) | 4 (≈ 3.84 µM) | 0.5 (≈ 0.48 µM) | 1 (≈ 0.959 µM) | 2 (≈ 1.92 µM) | 4 (≈ 3.84 µM)
7 | CNCC(=O)N[C@@H]1[C@H](O)[C@H](O[C@H]2/C=C/C=C/C=C/C=C/C=C/C=C/C=C/[C@H](C)[C@@H](O)[C@@H](C)[C@H](C)OC(=O)C[C@H](O)C[C@H](O)CC[C@@H](O)[C@H](O)C[C@H](O)C[C@]3(O)C[C@H](O)[C@@H](C(=O)NCCN(C)C)[C@H](C2)O3)O[C@H](C)[C@H]1O | 0.5 (≈ 0.469 µM) | 2 (≈ 1.88 µM) | 2 (≈ 1.88 µM) | 2 (≈ 1.88 µM) | 16 (≈ 15 µM) | 4 (≈ 3.75 µM)
8 | CNCC(=O)N[C@@H]1[C@H](O)[C@H](O[C@H]2/C=C/C=C/C=C/C=C/C=C/C=C/C=C/[C@H](C)[C@@H](O)[C@@H](C)[C@H](C)OC(=O)C[C@H](O)C[C@H](O)CC[C@@H](O)[C@H](O)C[C@H](O)C[C@]3(O)C[C@H](O)[C@@H](C(=O)N4CCN(CCOC)CC4)[C@H](C2)O3)O[C@H](C)[C@H]1O | 0.25 (≈ 0.223 µM) | 4 (≈ 3.57 µM) | 0.5 (≈ 0.446 µM) | 2 (≈ 1.78 µM) | 32 (≈ 28.5 µM) | 0.5 (≈ 0.446 µM)
9 | CNCC(=O)N[C@@H]1[C@H](O)[C@H](O[C@H]2/C=C/C=C/C=C/C=C/C=C/C=C/C=C/[C@H](C)[C@@H](O)[C@@H](C)[C@H](C)OC(=O)C[C@H](O)C[C@H](O)CC[C@@H](O)[C@H](O)C[C@H](O)C[C@]3(O)C[C@H](O)[C@@H](C(=O)N4CCN(CCN(C)C)CC4)[C@H](C2)O3)O[C@H](C)[C@H]1O | 1 (≈ 0.882 µM) | 1 (≈ 0.882 µM) | 1 (≈ 0.882 µM) | 2 (≈ 1.76 µM) | 4 (≈ 3.53 µM) | 1 (≈ 0.882 µM)
10 | CNCC(=O)N[C@@H]1[C@H](O)[C@H](O[C@H]2/C=C/C=C/C=C/C=C/C=C/C=C/C=C/[C@H](C)[C@@H](O)[C@@H](C)[C@H](C)OC(=O)C[C@H](O)C[C@H](O)CC[C@@H](O)[C@H](O)C[C@H](O)C[C@]3(O)C[C@H](O)[C@@H](C(=O)NNC(C)=O)[C@H](C2)O3)O[C@H](C)[C@H]1O | 0.125 (≈ 0.119 µM) | 2 (≈ 1.9 µM) | 0.125 (≈ 0.119 µM) | 0.5 (≈ 0.476 µM) | 4 (≈ 3.81 µM) | 4 (≈ 3.81 µM)
